According to the supplement of paper PMC10307832:

What was measured:
Test in all cases: relative viability (nuclei count vs DMSO), 5 days (fraction); higher = more cells survive
NCI-H2228 = tested on: NCI-H2228
Summary of the method: (§1)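 Each reported value is a median over duplicate plates. It expresses relative viability: treated-well nuclei count divided by vehicle-well nuclei count. Lung cancer cell lines in 1536-well plates were dosed by pin tool a day after seeding, alone with one drug or with a fixed anchor-drug dose plus five library-drug doses (not always all listed) in √10 steps, and nuclei were counted after 5 days.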

NCI-H1944 = tested on: NCI-H1944
Summary of the method: as §1

HCC-366 = tested on: HCC-366
Summary of the method: as §1

NCI-H2405 = tested on: NCI-H2405
Summary of the method: as §1

NCI-H1793 = tested on: NCI-H1793
Summary of the method: as §1

NCI-H1755 = tested on: NCI-H1755
Summary of the method: as §1

NCI-H460 = tested on: NCI-H460
Summary of the method: as §1

NCI-H3122 = tested on: NCI-H3122
Summary of the method: as §1

LU99A = tested on: LU99A
Summary of the method: as §1

NCI-H1395 = tested on: NCI-H1395
Summary of the method: as §1

LOU-NH91 = tested on: LOU-NH91
Summary of the method: as §1

UMC-11 = tested on: UMC-11
Summary of the method: as §1

NCI-H2087 = tested on: NCI-H2087
Summary of the method: as §1

NCI-H1651 = tested on: NCI-H1651
Summary of the method: as §1

ABC-1 = tested on: ABC-1
Summary of the method: as §1

CAL-12T = tested on: CAL-12T
Summary of the method: as §1

NCI-H2170 = tested on: NCI-H2170
Summary of the method: as §1

HCC-78 = tested on: HCC-78
Summary of the method: as §1

ChaGo-K-1 = tested on: ChaGo-K-1
Summary of the method: as §1

RERF-LC-KJ = tested on: RERF-LC-KJ
Summary of the method: as §1

PC-3 [JPC-3] = tested on: PC-3 [JPC-3]
Summary of the method: as §1

LC-2-ad = tested on: LC-2-ad
Summary of the method: as §1

`O=c1cc(N2CCOCC2)oc2c(-c3cccc4c3sc3ccccc34)cccc12` + Cc1cc(Nc2cc(N3CCN(C)CC3)nc(Sc3ccc(NC(=O)C4CC4)cc3)n2)n[nH]1 [Tozasertib] (partner 0.1 µM) gave a relative viability (NCI-H2228; first compound 0.01 µM) of 0.331, a relative viability (NCI-H2228; first compound 0.03162 µM) of 0.267 and a relative viability (NCI-H2228; first compound 0.1 µM) of 0.217. For the same compound, the relative viability (NCI-H2228; first compound 0.3162 µM) was 0.224, the relative viability (NCI-H2228; first compound 1 µM) was 0.228 and the relative viability (NCI-H1944; first compound 0.01 µM) was 0.246. It also gave a relative viability (NCI-H1944; first compound 0.03162 µM) of 0.249, a relative viability (NCI-H1944; first compound 0.1 µM) of 0.241 and a relative viability (NCI-H1944; first compound 0.3162 µM) of 0.245. For the same compound, the relative viability (NCI-H1944; first compound 1 µM) was 0.244, the relative viability (HCC-366; first compound 0.01 µM) was 0.123 and the relative viability (HCC-366; first compound 0.03162 µM) was 0.125. For the same compound, the relative viability (HCC-366; first compound 0.1 µM) was 0.102, the relative viability (HCC-366; first compound 0.3162 µM) was 0.211 and the relative viability (HCC-366; first compound 1 µM) was 0.121. It also gave a relative viability (NCI-H2405; first compound 0.01 µM) of 0.727, a relative viability (NCI-H2405; first compound 0.03162 µM) of 0.753 and a relative viability (NCI-H2405; first compound 0.1 µM) of 0.821. It also gave a relative viability (NCI-H2405; first compound 0.3162 µM) of 0.734, a relative viability (NCI-H2405; first compound 1 µM) of 0.75 and a relative viability (NCI-H1793; first compound 0.01 µM) of 0.352. For the same compound, the relative viability (NCI-H1793; first compound 0.1 µM) was 0.324, the relative viability (NCI-H1793; first compound 0.3162 µM) was 0.312 and the relative viability (NCI-H1793; first compound 1 µM) was 0.276. The relative viability (NCI-H1755; first compound 0.01 µM) was 0.592, the relative viability (NCI-H1755; first compound 0.03162 µM) was 0.669 and the relative viability (NCI-H1755; first compound 0.1 µM) was 0.693. It also gave a relative viability (NCI-H1755; first compound 0.3162 µM) of 0.539, a relative viability (NCI-H1755; first compound 1 µM) of 0.542 and a relative viability (NCI-H460; first compound 0.01 µM) of 0.342. The relative viability (NCI-H460; first compound 0.03162 µM) was 0.479, the relative viability (NCI-H460; first compound 0.1 µM) was 0.511 and the relative viability (NCI-H460; first compound 0.3162 µM) was 0.417. The relative viability (NCI-H460; first compound 1 µM) was 0.465, the relative viability (NCI-H3122; first compound 0.01 µM) was 0.39 and the relative viability (NCI-H3122; first compound 0.03162 µM) was 0.418. It also gave a relative viability (NCI-H3122; first compound 0.1 µM) of 0.417, a relative viability (NCI-H3122; first compound 0.3162 µM) of 0.378 and a relative viability (NCI-H3122; first compound 1 µM) of 0.349. The relative viability (LU99A; first compound 0.01 µM) was 0.262, the relative viability (LU99A; first compound 0.03162 µM) was 0.279 and the relative viability (LU99A; first compound 0.1 µM) was 0.273. For the same compound, the relative viability (LU99A; first compound 0.3162 µM) was 0.303, the relative viability (LU99A; first compound 1 µM) was 0.267 and the relative viability (NCI-H1395; first compound 0.01 µM) was 0.78. The relative viability (NCI-H1395; first compound 0.03162 µM) was 0.776, the relative viability (NCI-H1395; first compound 0.1 µM) was 0.659 and the relative viability (NCI-H1395; first compound 0.3162 µM) was 0.832. It also gave a relative viability (NCI-H1395; first compound 1 µM) of 0.682, a relative viability (LOU-NH91; first compound 0.01 µM) of 0.642 and a relative viability (LOU-NH91; first compound 0.03162 µM) of 0.65. For the same compound, the relative viability (LOU-NH91; first compound 0.1 µM) was 0.655, the relative viability (LOU-NH91; first compound 0.3162 µM) was 0.697 and the relative viability (LOU-NH91; first compound 1 µM) was 0.65. For the same compound, the relative viability (UMC-11; first compound 0.01 µM) was 0.194, the relative viability (UMC-11; first compound 0.03162 µM) was 0.208 and the relative viability (UMC-11; first compound 0.1 µM) was 0.202. The relative viability (UMC-11; first compound 0.3162 µM) was 0.209, the relative viability (UMC-11; first compound 1 µM) was 0.202 and the relative viability (NCI-H2087; first compound 0.01 µM) was 0.289. It also gave a relative viability (NCI-H2087; first compound 0.03162 µM) of 0.247, a relative viability (NCI-H2087; first compound 0.1 µM) of 0.297 and a relative viability (NCI-H2087; first compound 0.3162 µM) of 0.226. For the same compound, the relative viability (NCI-H2087; first compound 1 µM) was 0.25, the relative viability (NCI-H1651; first compound 0.01 µM) was 0.687 and the relative viability (NCI-H1651; first compound 0.03162 µM) was 0.848. The relative viability (NCI-H1651; first compound 0.1 µM) was 0.844, the relative viability (NCI-H1651; first compound 0.3162 µM) was 0.72 and the relative viability (NCI-H1651; first compound 1 µM) was 0.751. The relative viability (ABC-1; first compound 0.01 µM) was 0.186, the relative viability (ABC-1; first compound 0.03162 µM) was 0.178 and the relative viability (ABC-1; first compound 0.1 µM) was 0.222. It also gave a relative viability (ABC-1; first compound 0.3162 µM) of 0.21, a relative viability (ABC-1; first compound 1 µM) of 0.164 and a relative viability (CAL-12T; first compound 0.01 µM) of 0.354. The relative viability (CAL-12T; first compound 0.03162 µM) was 0.248, the relative viability (CAL-12T; first compound 0.1 µM) was 0.347 and the relative viability (CAL-12T; first compound 0.3162 µM) was 0.277. For the same compound, the relative viability (CAL-12T; first compound 1 µM) was 0.288, the relative viability (NCI-H2170; first compound 0.01 µM) was 0.741 and the relative viability (NCI-H2170; first compound 0.03162 µM) was 0.673. For the same compound, the relative viability (NCI-H2170; first compound 0.1 µM) was 0.758, the relative viability (NCI-H2170; first compound 0.3162 µM) was 0.801 and the relative viability (NCI-H2170; first compound 1 µM) was 0.707. The relative viability (HCC-78; first compound 0.01 µM) was 0.417, the relative viability (HCC-78; first compound 0.03162 µM) was 0.359 and the relative viability (HCC-78; first compound 0.1 µM) was 0.417. It also gave a relative viability (HCC-78; first compound 0.3162 µM) of 0.41, a relative viability (HCC-78; first compound 1 µM) of 0.452 and a relative viability (ChaGo-K-1; first compound 0.01 µM) of 0.232. The relative viability (ChaGo-K-1; first compound 0.03162 µM) was 0.209, the relative viability (ChaGo-K-1; first compound 0.1 µM) was 0.198 and the relative viability (ChaGo-K-1; first compound 0.3162 µM) was 0.222. For the same compound, the relative viability (ChaGo-K-1; first compound 1 µM) was 0.209, the relative viability (RERF-LC-KJ; first compound 0.01 µM) was 0.482 and the relative viability (RERF-LC-KJ; first compound 0.03162 µM) was 0.576. For the same compound, the relative viability (RERF-LC-KJ; first compound 0.1 µM) was 0.496, the relative viability (RERF-LC-KJ; first compound 0.3162 µM) was 0.429 and the relative viability (RERF-LC-KJ; first compound 1 µM) was 0.522. It also gave a relative viability (PC-3 [JPC-3]; first compound 0.01 µM) of 0.855, a relative viability (PC-3 [JPC-3]; first compound 0.03162 µM) of 0.884 and a relative viability (PC-3 [JPC-3]; first compound 0.1 µM) of 0.879. It also gave a relative viability (PC-3 [JPC-3]; first compound 0.3162 µM) of 0.842, a relative viability (PC-3 [JPC-3]; first compound 1 µM) of 0.852 and a relative viability (LC-2-ad; first compound 0.01 µM) of 0.486. For the same compound, the relative viability (LC-2-ad; first compound 0.03162 µM) was 0.46, the relative viability (LC-2-ad; first compound 0.1 µM) was 0.478 and the relative viability (LC-2-ad; first compound 0.3162 µM) was 0.443. For the same compound, the relative viability (LC-2-ad; first compound 1 µM) was 0.445.
